# Experimental data published in US8183216B2, “Nucleoside derivatives as inhibitors of viral polymerases” (Istituto Di Ricerche Di Biologia Molecolare P. Angeletti …, priority 2007, dated 2012).
# pEC50, pIC50: −log10 of the molar value.
# Target: T1, HCV NS5B RNA-dependent RNA polymerase (Hepatitis C virus genotype 1b, UniProt P26663)
# T1 construct: RNA-dependent RNA polymerase (NS5B) of the hepatitis C virus (HCV)
# Assay: Assay for inhibition of HCV NS5B polymerase (heteromeric RNA template, 3H-UTP incorporation)
# Type: biochemical
# Details: activity ranges
# Method: The effectiveness of the compounds of the present invention as inhibitors of HCV NS5B RNA-dependent RNA polymerase (RdRp) was measured in the following assay.
# A. Assay for Inhibition of HCV NS5B Polymerase:
# This assay was used to measure the ability of the nucleoside derivatives of the present invention to inhibit the enzymatic activity of the RNA-dependent RNA polymerase (NS5B) of the hepatitis C virus (HCV) on a heteromeric RNA template.
# Assay Buffer Conditions: (52.5 μL-total/reaction) • 20 mM Tris, pH 7.5 • 45 mM KCl • 2 mM MgCl2 • 0.01% Triton X-100 • 1 μg BSA, DNase Free • 1 mM DTT • 2 nM DC55-1b.BK or 10 nM DC55-2b.2 • 20 nM heterogeneous template dCoh • UTP 1 uM • ATP 1 uM • CTP 1 uM • GTP 1 uM • 3H-UTP 1,000,000 cpm • 2.5 μl reaction inhibitor compound in H2O
# The compounds were tested at various concentrations up to 100 μM final concentration. Nucleoside derivatives were pipetted into wells of a 96-well plate. The enzyme diluted in the reaction buffer was pipetted into the wells and incubated at room temperature for 10 minutes; then the template dCoh was added and incubated for 10 minutes at room temperature. The reaction was initiated by addition of a mixture of nucleotide triphosphates (NTP's), including the radiolabeled UTP, and allowed to proceed at room temperature for 2 hours. Blank samples were done omitting the dCoh template. The reaction was quenched by addition of 50 ul TCA 20% (trichloroacetic acid)/NaPPi 20 mM and the plates were put in ice for 5 minutes. Then, the mixtures were filtered onto Unifilter GF/B 96-well plates (PerkinElmer), washed with TCA 2.5%. P 50 ul/well of scintillator solution (Microscint 20, PerkinElmer) were added and the plates were counted in a scintillator counter.
# The percentage of inhibition was calculated according to the following equation: % Inhibition=[1−(cpm in test reaction−cpm in blank)/(cpm in control reaction−cpm in blank)]×100.
# Representative compounds were tested in the HCV NS5B polymerase assay and results are reported as IC50 activity ranges in Table B
# T1 sequence (P26663 2420-2955): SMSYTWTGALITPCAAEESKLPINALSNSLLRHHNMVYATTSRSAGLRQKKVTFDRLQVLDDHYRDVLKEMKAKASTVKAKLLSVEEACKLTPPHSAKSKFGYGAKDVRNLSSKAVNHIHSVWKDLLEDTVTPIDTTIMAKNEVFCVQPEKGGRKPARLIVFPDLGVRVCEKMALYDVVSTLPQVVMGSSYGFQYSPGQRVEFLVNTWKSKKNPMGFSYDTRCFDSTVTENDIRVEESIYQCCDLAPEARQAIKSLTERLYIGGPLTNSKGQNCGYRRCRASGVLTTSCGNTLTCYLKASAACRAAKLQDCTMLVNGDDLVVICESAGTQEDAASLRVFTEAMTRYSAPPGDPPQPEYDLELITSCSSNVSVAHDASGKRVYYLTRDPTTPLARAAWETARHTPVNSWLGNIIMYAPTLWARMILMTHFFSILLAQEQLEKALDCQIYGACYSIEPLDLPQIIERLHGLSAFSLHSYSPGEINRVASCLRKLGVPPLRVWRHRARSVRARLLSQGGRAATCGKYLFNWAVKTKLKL
row,pIC50,SMILES
1,4.52 to 6.00,"C[C@@]1(O)[C@H](O)[C@@H](COP(=O)(O)OP(=O)(O)OP(=O)(O)O)O[C@H]1n1cc2c3c(ncnc31)NCc1sccc1-2 [Compound 7, 2-[5-O-(hydroxy{[hydroxy(phosphonooxy)phosphoryl]oxy}phosphoryl)-2-C-methyl-beta-D-ribofuranosyl]-6,7-dihydro-2H-8-thia-2,3,5,6-tetraazabenzo[cd]cyclopenta[h]azulene]"
2,> 6.00,"C[C@@]1(O)[C@H](O)[C@@H](COP(=O)(O)OP(=O)(O)OP(=O)(O)O)O[C@H]1n1cc2c3c(ncnc31)NC(=O)c1sccc1-2 [Compound 8, 2-[5-O-(hydroxy{[hydroxy(phosphonooxy)phosphoryl]oxy}phosphoryl)-2-C-methyl-beta-D-ribofuranosyl]-2,6-dihydro-7H-8-thia-2,3,5,6-tetraazabenzo[cd]cyclopenta[h]azulen-7-one]"
3,> 6.00,"C[C@@]1(O)[C@H](O)[C@@H](COP(=O)(O)OP(=O)(O)OP(=O)(O)O)O[C@H]1n1cc2c3c(ncnc31)NC(=O)c1ccccc1-2 [Compound 5, 2-[5-O-(hydroxy{[hydroxy(phosphonooxy)phosphoryl]oxy}phosphoryl)-2-C-methyl-beta-D-ribofuranosyl]-2,6-dihydro-7H-2,3,5,6-tetraazadibenzo[cd,h]azulen-7-one]"
4,4.52 to 6.00,"C[C@@]1(O)[C@H](O)[C@@H](COP(=O)(O)OP(=O)(O)OP(=O)(O)O)O[C@H]1n1cc2c3c(ncnc31)NCc1ccccc1-2 [Compound 6, 2-[5-O-(hydroxy{[hydroxy(phosphonooxy)phosphoryl]oxy}phosphoryl)-2-C-methyl-beta-D-ribofuranosyl]-6,7-dihydro-2H-2,3,5,6-tetraazadibenzo[cd,h]azulene]"

# Test system: HuH-7 cells containing a subgenomic HCV Replicon
# Assay: Assay for inhibition of HCV RNA replication (subgenomic replicon, in situ RNase protection SPA)
# Type: cell-based
# Details: Hepatitis C virus; HCV replication assay in HuH-7 replicon cells, activity ranges
# Method: B. Assay for Inhibition of HCV RNA Replication:
# The compounds of the present invention were also evaluated for their ability to affect the replication of Hepatitis C Virus RNA in cultured hepatoma (HuH-7) cells containing a subgenomic HCV Replicon. The details of the assay are described below. This Replicon assay is a modification of that described in V. Lohmann, F. Korner, J-O. Koch, U. Herian, L. Theilmann, and R. Bartenschlager, “Replication of a Sub-genomic Hepatitis C Virus RNAs in a Hepatoma Cell Line,” Science 285:110 (1999).
# The assay was an in situ Ribonuclease protection, Scintillation Proximity based-plate assay (SPA). 10,000-40,000 cells were plated in 100-200 μL of media containing 0.8 mg/mL G418 in 96-well cytostar plates (Amersham). Compounds were added to cells at various concentrations up to 100 μM in 1% DMSO at time 0 to 18 h and then cultured for 24-96 h. Cells were fixed (20 min, 10% formalin), permeabilized (20 min, 0.25% Triton X-100/PBS) and hybridized (overnight, 50° C.) with a single-stranded ^33P RNA probe complementary to the (+) strand NS5B (or other genes) contained in the RNA viral genome. Cells were washed, treated with RNAse, washed, heated to 65° C. and counted in a Top-Count Inhibition of replication was read as a decrease in counts per minute (cpm).
# Human HuH-7 hepatoma cells, which were selected to contain a subgenomic replicon, carry a cytoplasmic RNA consisting of an HCV 5′ non-translated region (NTR), a neomycin selectable marker, an EMCV IRES (internal ribosome entry site), and HCV non-structural proteins NS3 through NS5B, followed by the 3′ NTR.
# Representative compounds were tested in the HCV replication assay and results are reported as EC50 activity ranges in Table C
row,SMILES,pEC50
1,"CC1(O)C(n2cc3c4c(ncnc42)NC(=O)c2sccc2-3)O[C@H](CO)[C@H]1O (single isomer, unassigned) [Compound 3, 2-(2-C-methyl-beta-D-ribofuranosyl)-2,6-dihydro-7H-8-thia-2,3,5,6-tetraazabenzo[CD]cyclopenta[H]azulen-7-one]",> 4.52
2,"C[C@@]1(O)[C@H](O)[C@@H](CO)O[C@H]1n1cc2c3c(ncnc31)NCc1ccccc1-2 [Compound 2, 2-(2-C-methyl-beta-D-ribofuranosyl)-6,7-dihydro-2H-2,3,5,6-tetraazadibenzo[cd,h]azulene]",4.30 to 4.52
3,"CC1(O)C(n2cc3c4c(ncnc42)NCc2sccc2-3)O[C@H](CO)[C@H]1O (single isomer, unassigned) [Compound 4, 2-(2-C-methyl-beta-D-ribofuranosyl)-6,7-dihydro-2H-8-thia-2,3,5,6-tetraazabenzo[CD]cyclopenta[H]azulene]",> 4.52
4,"C[C@@]1(O)[C@H](O)[C@@H](CO)O[C@H]1n1cc2c3c(ncnc31)NC(=O)c1ccccc1-2 [Compound 1, 2-(2-C-methyl-beta-D-ribofuranosyl)-2,6-dihydro-7H-2,3,5,6-tetraazadibenzo[C,D,H]azulen-7-one]",> 4.52
